Molecules are shown by their SMILES.

The target in the first assay is T1, TLR9 (Homo sapiens, UniProt Q9NR96).
T1 construct: expressed in transfected cells; host or cells: NIH 3T3 fibroblasts (mouse), stably transfected, NF-kB driven SEAP reporter
T1 sequence (Q9NR96 26-1032): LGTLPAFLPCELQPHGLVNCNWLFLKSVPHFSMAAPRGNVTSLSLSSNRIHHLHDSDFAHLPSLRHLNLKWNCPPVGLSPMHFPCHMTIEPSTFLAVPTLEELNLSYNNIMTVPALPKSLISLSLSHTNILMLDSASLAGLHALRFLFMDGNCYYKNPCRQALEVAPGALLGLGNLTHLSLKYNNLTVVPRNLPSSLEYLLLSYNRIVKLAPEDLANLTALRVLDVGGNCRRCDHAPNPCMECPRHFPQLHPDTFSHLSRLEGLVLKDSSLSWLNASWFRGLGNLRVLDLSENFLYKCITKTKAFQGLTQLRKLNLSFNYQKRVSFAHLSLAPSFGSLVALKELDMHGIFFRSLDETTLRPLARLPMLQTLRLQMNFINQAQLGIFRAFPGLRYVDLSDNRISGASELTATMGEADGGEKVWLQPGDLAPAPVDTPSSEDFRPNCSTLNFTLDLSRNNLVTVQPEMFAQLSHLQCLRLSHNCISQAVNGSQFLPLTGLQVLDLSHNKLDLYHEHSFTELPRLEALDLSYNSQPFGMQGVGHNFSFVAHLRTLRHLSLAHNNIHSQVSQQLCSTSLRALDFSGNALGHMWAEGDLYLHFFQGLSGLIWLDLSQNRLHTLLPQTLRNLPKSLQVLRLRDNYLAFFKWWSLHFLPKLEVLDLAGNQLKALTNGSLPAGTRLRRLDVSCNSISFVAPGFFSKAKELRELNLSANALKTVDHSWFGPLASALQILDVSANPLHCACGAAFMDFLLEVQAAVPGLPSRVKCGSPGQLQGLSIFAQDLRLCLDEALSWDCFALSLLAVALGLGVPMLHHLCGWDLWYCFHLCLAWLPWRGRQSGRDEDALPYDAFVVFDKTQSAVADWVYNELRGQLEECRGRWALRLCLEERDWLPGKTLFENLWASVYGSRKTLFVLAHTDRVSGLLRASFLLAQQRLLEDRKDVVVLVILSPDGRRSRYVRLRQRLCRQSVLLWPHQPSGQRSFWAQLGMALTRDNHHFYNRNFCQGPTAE
Briefly: cell-based reporter assay (NIH 3T3 reporter cell line expressing TLR9, NF-kB driven SEAP, stimulated with CpG ODN 2216). The note with it: FIG. 3; 5 μM ODN 2216, 0.12 μM-7.8 μM of antagonist. As to the method: In context with the present invention, the ‘IC50 value’ is the half maximum inhibitory concentration which is a measure of the effectiveness of a substance inhibiting the function of the TLR9. The IC50 value can be determined by a functional antagonist assay or a competition binding assay. Preferably, the IC50 value is determined by the cell-based reporter assay in section 3, below, of the examples.
A cell based test-system that allows PAMPs to be identified and differentiated via pattern recognition receptors (PRRs) in a reporter gene assay was used (DE 10 2006 031 483, EP 2 041 172). For this assay human PRRs and co-receptors were stably transfected and expressed in NIH 3T3 fibroblasts. This cell line expresses no other PRRs and contains a reporter gene which is activated by PRR-activation. The induction of receptor complexes by their ligands leads, after a signalling cascade, to an activation of transcription factor NF-kB, which regulates the expression of an additional integrated reporter gene, a secreted alkaline phosphatase (SEAP) (Burger-Kentischer, A.; Abele, I. S.; Finkelmeier, D.; Wiesmüller, K.-H.; Rupp, S., A new cell-based innate immune receptor assay for the examination of receptor activity, ligand specificity, signalling pathways and the detection of pyrogens. J. Immunol. Methods 2010, 358 (1), 93-103).
This test system mimics elements of the innate human immune system and can selectively recognize a large number of PAMPs with high sensitivity. Consequently, the PRR-specific cell-based high-throughput feature of the reporter cell lines will provide a fast, flexible and convenient means for lead compound screening in the pharmaceutical drug development fields. For the in vitro screening of the top candidates identified at IDR, the Fraunhofer IGB used this cell-based reporter system to identify TLR9 antagonists in order to determine their activity as well their biocompatibility. Within a first step the NIH3T3 cell line expressing TLR9 was used to measure the inhibitory effect of the TLR9 antagonists.
For the experiment the reporter cell line expressing TL9 was plated in 96-well cell culture plates at a density of 0.3×10^5 cells in DMEM media supplemented with 10% FCS (Invitrogen), 1% L-glutamine (200 mM Invitrogen) and 1% Penicillin-Streptomycin (PenStrep: 100×, Invitrogen). The cells were incubated for 16 h to grow adherent monolayers at 37° C. in a 5% saturated CO2 humidified atmosphere. After overnight incubation, the media was removed and replaced by DMEM medium supplemented with 1% PenStrep, 1% L-glutamine and 0.5% FCS. The media change is important to avoid a unspecific background signal, caused by active remaining phosphatases present in the FCS. The cells are then stimulated with a specific ligand non-methylated CpG ODN 2216 agonist (Invivogen) and the potential antagonists using different concentrations, namely within a range of concentrations of the potential antagonists starting with 0.025 μM (for the antagonist with the highest activity) up to 14 mM for the antagonists with lowest activities.
The ODN ligand has the sequence 5′-ggGGGACGA:TCGTCgggggg-3′ (SEQ ID No. 1). Those represented by capital letters are phosphodiesters, and those in small letters are phosphorothioate. The Palindrome is underlined.
The cells were again incubated in a humidified atmosphere for 16h leading to the expression or reduced expression of SEAP and its secretion into the media. Binding of the antagonist leads to a block of the TLR9, resulting in no or in a reduced expression of the reporter gene (SEAP). Therefore, 50 μl supernatant were taken from the cells and transferred into a 96-well PS microplate flat bottom (Greiner BIO-ONE). The enzyme substrate reaction was initiated by adding 50 μl of the specific substrate. SEAP catalyses the hydrolysis of pNPP to the final product para-nitrophenol (yellow), which can be detected in a photometric analysis using an UV-VIS reader at 405 nm. […]
In general terms: A reporter such as luciferase makes a cellular process visible.
For `c1ccc(-n2cc(CNCCCN3CCOCC3)c(-c3cc4ccccc4o3)n2)cc1` [T5570245], the ODN2216 signal entry is “dose dependent reduction of the signal”.

The assay is the same for the next values; noted with them: FIG. 3; 5 μM ODN 2216, 0.12 μM-7.8 μM of antagonist; read-out: IC50 value.
Turning to `c1ccc(-n2cc(CNCCCN3CCOCC3)c(-c3cc4ccccc4o3)n2)cc1` [T5570245], the IC50 came out at 0.8 µM.

Staying with this assay, now noted: Table 5; first 30 candidates; ODN 2216 agonist; n≥3.
As for `Cc1ccc(N2CCN(/N=C/C=C/c3ccccc3)CC2)cc1` [T0505-2171, N(/N1CCN(CC1)c1ccc(cc1)C)═C\C═C\c1ccccc1], the “IC50 in [μM]” value is reported as “agonist”.

With `c1ccc(-c2cc(-c3cccnc3)nc3ccccc23)cc1` [T5762626, n1c2c(cccc2)c(cc1-c1cccnc1)-c1ccccc1], the “IC50 in [μM]” value was “agonist”.

Staying with this assay, now noted: Table 5; first 30 candidates; ODN 2216 agonist; n≥3; read-out: IC50 in.
For `COc1ccc(/N=C/c2ccc3ncccc3c2)cc1` [T0501-0693, O(C)c1ccc(\N═C\c2cc3c(nccc3)cc2)cc1], the IC50 stood at 15.7 µM. Consider `COc1ccc(/C=N/c2ccc3nc(C)ccc3c2)cc1` [T0501-1111, O(C)c1ccc(cc1)\C═N\c1cc2c(nc(cc2)C)cc1], for which the IC50 was 488 µM. For the compound `c1ccc(-c2cn3c(n2)CCc2ccc4cccnc4c2-3)cc1` [T0502-6934, n1c2n(cc1-c1ccccc1)-c1c(CC2)ccc2c1nccc2], the IC50 stood at 13200 µM.

On to `COc1ccc2nc3c(nc2c1)-c1cccc2cccc-3c12` [T0504-1221, O(C)c1cc2nc3-c4c5c(-c3nc2cc1)cccc5ccc4], for which the IC50 was found to be 65.6 µM. As to `c1ccc(-c2nc3ccccc3nc2-c2ccccc2)cc1` [T0504-1257, n1c2c(nc(c1-c1ccccc1)-c1ccccc1)cccc2], the IC50 stood at 1990 µM. Turning to `CN(C)c1ccc(/C=C/c2ccc3ccccc3n2)cc1` [T0506-4124, n1c2c(ccc1\C═C\c1ccc(N(C)C)cc1)cccc2], the IC50 was determined as 312 µM. On the same count and under the same terms, the value for `CCOc1ccccc1OCCOc1cccc2cccnc12` [T0513-2251, O(CCOc1c2ncccc2ccc1)c1ccccc1OCC] was 1080 µM; that for `COc1ccc2c(-c3ccccc3)cc(N3CCOCC3)nc2c1` [T0513-5752, O1CCN(CC1)c1nc2c(ccc(OC)c2)c(c1)-c1ccccc1] was 7.77 µM; that for `COc1ccc(CCN(C)c2ncnc3c2oc2ccccc23)cc1OC` [T0519-4581, o1c2c(ncnc2N(CCc2cc(OC)c(OC)cc2)C)c2c1cccc2] was 15.1 µM. `c1ccc(OCCn2c(-c3ccco3)nc3ccccc32)cc1` [T5456813, o1cccc1-c1nc2c(n1CCOc1ccccc1)cccc2]: the IC50 came out at 73.2 µM. Consider `C(=C\c1ccc2ccccc2n1)/c1ccc(-n2ccnc2)cc1` [T5500062, n1c2c(ccc1\C═C\c1ccc(-n3ccnc3)cc1)cccc2], for which the half-maximal inhibitory concentration (IC50) amounted to 777 µM. The same measure, in the same setting: the value for `COc1ccccc1N1CCN(c2ccc3ccccc3n2)CC1` [T5547436, O(C)c1ccccc1N1CCN(CC1)c1nc2c(cc1)cccc2] was 1160 µM; that for `COc1ccc(CCNc2ncnc3c2oc2ccccc23)cc1OC` [T5666774, o1c2c(ncnc2NCCc2cc(OC)c(OC)cc2)c2c1cccc2] was 30.3 µM; that for `COc1cc(/C=C/c2ccc3ccccc3n2)cc(OC)c1` [T5702130, O(C)c1cc(cc(OC)c1)\C═C\c1nc2c(cc1)cccc2] was 7.27 µM. For the compound `COc1ccc(/C=C/c2ccc3ccccc3n2)c(OC)c1` [T5713724, O(C)c1cc(OC)ccc1\C═C\c1nc2c(cc1)cccc2], the IC50 came out at 15.9 µM.

`COc1ccc(-n2c(-c3ccncc3)nc3ccccc32)cc1` [T5771455, O(C)c1ccc(-n2c3c(nc2-c2ccncc2)cccc3)cc1]: the IC50 was found to be 11.9 µM. Regarding `COc1ccc(OCCOc2cccc3cccnc23)cc1` [T5771955, O(CCOc1ccc(OC)cc1)c1c2ncccc2ccc1], the IC50 was determined as 650 µM.

Turning to `Cc1cc(-c2ccc(-n3ccnc3)cc2)nc2ccccc12` [T5803292, n1c2c(cccc2)c(cc1-c1ccc(-n2ccnc2)cc1)C], the IC50 turned out to be 4270 µM. The same measure, in the same setting: the value for `c1ccc2c(NCCNc3ncnc4ccccc34)cccc2c1` [T5807811, n1cnc2c(cccc2)c1NCCNc1c2c(ccc1)cccc2] was 57 µM; that for `COCCNc1ncnc2c1c(-c1ccccc1)cn2-c1ccc(OC)cc1` [T6015017, O(C)c1ccc(-n2cc(c3c2ncnc3NCCOC)-c2ccccc2)cc1] was 2030 µM.

Still in this assay, the particulars now being: in the presence of 5 μM of the ODN 2216 agonist; read-out: IC50 in.
Consider `COc1ccc(CNc2nc3ccccc3n2CCN2CCCCC2)cc1OC` [T0503-2983], for which the half-inhibitory concentration (IC50) was 6.78 µM. On to `COc1cc(CNC2CCN(Cc3ccccc3)CC2)ccc1OCc1c(C)noc1C` [T5364934], for which the IC50 stood at 1.62 µM. In the case of `COc1cc(CN2CCN(CCN3CCCC3)CC2)ccc1OCc1ccc(Cl)cc1` [T5428933], the IC50 came to 0.962 µM. For the compound `c1ccc(CN2CCN(c3ccnc(N4CCN(Cc5ccccc5)CC4)n3)CC2)cc1` [T5453081], the IC50 stood at 1.6 µM. Still for that read-out and setting: the figure for `Clc1ccc(-c2nn(Cc3ccccc3)cc2CN2CCN(CCN3CCCC3)CC2)cc1` [T5535483] is 3.82 µM; for `c1ccc(-n2cc(CNCCCN3CCOCC3)c(-c3cc4ccccc4o3)n2)cc1` [T5570245] it is 0.815 µM; for `COc1ccc(-c2nn(-c3ccccc3)cc2CNCc2ccccc2CN2CCOCC2)cc1` [T5571341] it is 3.14 µM. As for `CN(C)CCCNCc1cn(-c2ccccc2)nc1-c1ccc2c(c1)OCCO2` [T5581953], the 50% inhibitory concentration (IC50) came out at 0.201 µM. On the same count and under the same terms, the figure for `CCN1CCC(NCc2cn(-c3ccccc3)nc2-c2ccc3c(c2)OCCO3)CC1` [T5581955] is 1.44 µM; for `c1ccc(-n2cc(CNCCN3CCCC3)c(-c3ccc4c(c3)OCCO4)n2)cc1` [T5581956] it is 3.16 µM; for `CCCN1CCC(NCc2cn(-c3ccccc3)nc2-c2ccc3c(c2)OCCO3)CC1` [T5587050] it is 1.87 µM. With `COc1ccc(CN2CCN(Cc3c(-c4ccccc4)nc4ccccn34)CC2)cc1OC` [T5635793], the IC50 is 6.32 µM.

Regarding `COc1cc2nc(-c3ccccc3)nc(N3CCN(CCN4CCCC4)CC3)c2cc1OC` [T5669070], the IC50 stood at 0.0536 µM. For the compound `CC(C)(c1ccccc1)c1ccc(OCCCNCCN2CCOCC2)cc1` [T5793071], the IC50 worked out at 6.43 µM. For `CCN1CCC(NCc2ccc(-n3cnc4ccccc43)cc2)CC1` [T5820428], the IC50 is 1.78 µM.

For `COc1ccc(-c2nn(-c3ccccc3)cc2CNCc2ccccc2CN2CCOCC2)cc1OC` [T6083277], the IC50 is 7.51 µM.

One may read the IC50 as the midpoint of a concentration-inhibition curve.

These data come from patent US11104677B2, “Toll-like receptor 9 antagonists” (FRAUNHOFER-GESELLSCHAFT ZUR FÖRDERUNG DER ANGEWANDTEN …, priority 2015, dated 2021).
